Read-outs that look alike come from different tables or passages of the source. Bounds are passed on as bounds.

Test [1] relates to L. mexicana Cas9^ΔNT1+TcrNT2 promastigotes. Set-up: method as in de Almeida Fiuza et al. [41]. The following applies: starred values, ref de Almeida Fiuza et al. [41], cited from earlier work; for RF vs. ΔNT1 (resistance factor): Cas9^ΔNT1+TcrNT2 in comparison to Cas9^ΔNT1; for EC50: L. mexicana Cas9^ΔNT1+TcrNT2 promastigotes, read-out: EC50 (µM) AVG ± SEM, L. mexicana Cas9^ΔNT1+TcrNT2.

Test [2] relates to L. mexicana Cas9 promastigotes. Set-up: method as in de Almeida Fiuza et al. [41]. Conditions: starred values, ref de Almeida Fiuza et al. [41], read-out: EC50 (µM) AVG ± SEM, Cas9; cited from earlier work.
Test [3] has as its system L. mexicana Cas9^ΔNT1 promastigotes. Set-up: method as in de Almeida Fiuza et al. [41]. Conditions: starred values, ref de Almeida Fiuza et al. [41], cited from earlier work; for RF vs. Cas9 (resistance factor): EC50 Cas9^ΔNT1 relative to Cas9; for EC50: L. mexicana Cas9^ΔNT1 promastigotes, read-out: EC50 (µM) AVG ± SEM, L. mexicana Cas9^ΔNT1.
For test [4], the target named is T1, TcrNT2 (Trypanosoma cruzi, UniProt Q4DHG0). Conditions: cited from earlier work; for Ki: earlier characterization, TcrNT2 expressed in T. brucei, ref Campagnaro et al. [30], read-out: Ki on thymidine transport by TcrNT2.
For test [5], the target named is T1, TcrNT2. Put plainly: Transport of [^3H]-thymidine by TcrNT2 expressed in L. mexicana Cas9^ΔNT1 (Km, inhibition). The class given is cell-based. The following applies: for ΔG° (Gibbs free energy of interaction): calculated from Km or Ki at 25 °C; for δ(ΔG°) with respect to ΔG° of thymidine: change in ΔG° relative to thymidine; for Ki: read-out: Ki on the transport of [^3H]-thymidine by TcrNT2. As for the experimental part:
These values can be used to calculate the Gibbs free energy of interaction ΔG°, but these experiments cannot distinguish between the test compound being transported or merely binding to the transporter and inhibiting the transit of the [^3H]-thymidine.
Transport assays were conducted with radiolabeled nucleosides [methyl-^3H]-thymidine (20 Ci/mmol; PerkinElmer (Waltham, MA, USA)) and [2,8-^3H]-adenosine (40 Ci/mmol; American Radiolabeled Chemicals (ARC, St-Louis, MO, USA)). Cells were harvested from mid-log phase cultures by centrifugation and washed into an assay buffer (AB) as described, at a density of 1 × 10^8 cells mL^−1. Transport assays were then performed exactly as described previously, using an oil-stop protocol. Briefly, 100 µL of cell suspension (10^7 cells) was mixed with 100 µL of [^3H]-substrate at 2 × final concentration and incubated for a pre-set time prior to the addition of 800 µL of ice-cold AB containing a saturating concentration of unlabeled permeant (usually 1 or 2.5 mM) and immediate centrifugation through an oil layer to separate cells from extracellular radiolabel. The 100 µL of [^3H]-substrate could also contain unlabeled substrate or an inhibitor at 2 × concentration, as appropriate. Next, the microfuge tubes were flash frozen in liquid nitrogen; the tips with the cell pellets cut off and collected in scintillation tubes. Cells were solubilized by incubation in 2% SDS under gentle shaking on a rocking platform prior to the addition of scintillation fluid (Scintilogic U, Lablogic, Sheffield, UK). The tubes stored in the dark overnight before counting in a 300SL Hidex Scintillation Counter (Lablogic).
Michaelis-Menten constants (Km) were calculated by plotting transport rates of [^3H]-substrate against the concentration, using the Michaelis-Menten equation V0 = Vmax([substrate]/([substrate] + Km)) and non-linear regression in GraphPad Prism 8. Inhibition constants (Ki) were calculated using the Cheng-Prusoff equation: Ki = IC50/(1 + (L/Km)), where L represents the radiolabel concentration. The IC50 was obtained by a non-linear regression of the inhibition curve of transport rate versus inhibitor concentration, using an equation for a sigmoid curve with variable slope (GraphPad Prism 8). The Gibbs free energy ΔG° was obtained using the equation ΔG° = −RTln(Ki), in which R is the gas constant and T is the absolute temperature. As discussed previously, these equations apply to competitive rather than non-competitive inhibition. Given that only close analogues of the substrate were used as potential inhibitors and that Hill slopes were consistently close to −1, it is very likely that inhibition was indeed competitive.

T1 sequence (Q4DHG0 entry or part of it): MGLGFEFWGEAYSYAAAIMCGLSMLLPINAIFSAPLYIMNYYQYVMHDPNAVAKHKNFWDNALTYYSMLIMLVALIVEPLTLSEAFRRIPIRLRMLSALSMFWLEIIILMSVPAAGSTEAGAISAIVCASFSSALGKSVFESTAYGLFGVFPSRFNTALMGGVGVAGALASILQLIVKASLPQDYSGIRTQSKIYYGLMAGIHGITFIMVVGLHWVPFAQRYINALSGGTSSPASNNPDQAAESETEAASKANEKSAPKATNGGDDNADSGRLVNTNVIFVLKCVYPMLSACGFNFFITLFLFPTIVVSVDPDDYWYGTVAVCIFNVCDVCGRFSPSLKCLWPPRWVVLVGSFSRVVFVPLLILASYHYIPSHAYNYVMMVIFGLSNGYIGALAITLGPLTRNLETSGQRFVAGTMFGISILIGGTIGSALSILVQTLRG

For the compound `Nc1ncnc2c1c(Cl)cn2[C@@H]1O[C@H](CO)[C@@H](O)[C@H]1O` [FH3169], in test [1], the “RF vs. ΔNT1 (resistance factor)” value is on record as 6.26 and the EC50 is 0.32 ± 0.05 µM. Also, the EC50 in test [2] is 0.24 ± 0.055 µM. For the same compound, in test [3], the “RF vs. Cas9 (resistance factor)” value was 8.43 and the EC50 was 2 ± 0.19 µM.
For the compound `Nc1ccn([C@@H]2O[C@H](CO)[C@@H](O)[C@H]2O)c(=O)n1` [cytidine], the Ki at TcrNT2 [4] is 728 ± 71 µM.
Regarding `Nc1ncnc2c1c(-c1ccc(Cl)c(F)c1)cn2[C@@H]1O[C@H](CO)[C@@H](O)[C@H]1O` [FH10714], the EC50 in test [1], in test [2] and in test [3] was greater than 500 µM throughout.
In the case of `Nc1ncnc2c1c(-c1ccc(Cl)cc1)cn2[C@@H]1O[C@H](CO)[C@@H](O)[C@H]1O` [TH1012], in test [1], the “RF vs. ΔNT1 (resistance factor)” value is on record as 2.90 and the concentration for a half-maximal effect (EC50) was 96.6 ± 0.3 µM. The EC50 in test [2] was 52.5 ± 0.3 µM. In addition, in test [3], the “RF vs. Cas9 (resistance factor)” value is 5.3 and the EC50 was 280 ± 18 µM.
Turning to `O=c1ccn([C@@H]2O[C@H](CO)[C@@H](O)[C@H]2O)c(=O)[nH]1` [Uridine], at TcrNT2 [5], the “ΔG° (Gibbs free energy of interaction)” value is -5.14 kcal/mol, the “δ(ΔG°) with respect to ΔG° of thymidine” value was -3.85 kcal/mol and the Ki came to 172 ± 8 µM. Moreover, the “δ(ΔG°) with respect to ΔG° of thymidine” value on TcrNT2 [5] (listed as uridine) was found to be 3.85 kcal/mol. Further, the “δ(ΔG°), pairwise comparison with 2′-deoxyuridine” value on TcrNT2 [5] (pairwise comparison vs. 2′-deoxyuridine) was determined as 2.89 kcal/mol. On TcrNT2 [4] (TcrNT2 expressed in T. b. brucei, ref [30]), the “fold lower affinity than thymidine” value is 300 fold.
In the case of `O=c1ccn([C@H]2C[C@H](O)[C@@H](CO)O2)c(=O)[nH]1` [2′-deoxyuridine], on TcrNT2 [5], the “ΔG° (Gibbs free energy of interaction)” value is -8.03 kcal/mol, the “δ(ΔG°) with respect to ΔG° of thymidine” value was -0.954 kcal/mol and the Ki is 1.31 ± 0.002 µM. At TcrNT2 [4], the Ki is 1.11 ± 0.1 µM.
Turning to `Nc1ncnc2c1c(-c1ccccc1)cn2[C@@H]1O[C@H](CO)[C@@H](O)[C@H]1O` [TH1004], the “RF vs. ΔNT1 (resistance factor)” value in test [1] is on record as 1.37. The results for the EC50 in test [1], in test [2] and in test [3] were 101 ± 0.5 µM, 37 ± 0.23 µM and 138 ± 10 µM, respectively. In addition, the “RF vs. Cas9 (resistance factor)” value in test [3] is 3.7.

The EC50 is the concentration at which the effect is half-maximal. The Ki is the equilibrium dissociation constant of an inhibitor or competing ligand from its target.
